Measurements: ChEMBL document CHEMBL3785043, “Exploring the purine core of 3'-C-ethynyladenosine (EAdo) in search of novel nucleoside therapeutics” (Bioorg Med Chem Lett, 2016)
Activity calls are given as the source filed them. The rule behind the calls is not given here.

Tests used:
Influenza A virus [1] = test: Antiviral activity against Influenza virus A H3N2 at 100 uM; type: functional, organism-based
Influenza B virus = test: Antiviral activity against Influenza virus B at 100 uM; type: functional, organism-based
[2] = system: Mammalian orthoreovirus 1; test: Antiviral activity against Reovirus 1 at 100 uM; type: functional
Punta Toro virus = test: Antiviral activity against Punta Toro virus at 100 uM; type: functional, organism-based
[3] = system: Human immunodeficiency virus 1; test: Antiviral activity against HIV1 3B infected in human MT4 cells at 100 uM preincubated with cells for 30 mins followed by HIV inoculation measured after 4 to 5 days by microscopic analysis; type: functional, organism-based
[4] = system: Human immunodeficiency virus 1; test: Antiviral activity against HIV 1 NL4-3 infected in human MT4 cells at 100 uM preincubated with cells for 30 mins followed by HIV inoculation measured after 4 to 5 days by microscopic analysis; type: functional, organism-based
[5] = system: Human immunodeficiency virus 2; test: Antiviral activity against HIV2 ROD infected in human MT4 cells at 100 uM preincubated with cells for 30 mins followed by HIV inoculation measured after 4 to 5 days by microscopic analysis; type: functional, organism-based; conditions: ISOLATE ROD
L1210 = test: Cytostatic activity against mouse L1210 cells after 48 hrs by Coulter counter method; type: functional, cell-based; conditions: L1210, 48 h
CCRF-CEM = test: Cytostatic activity against human CEM cells after 72 hrs by Coulter counter method; type: functional, cell-based
Sindbis virus = test: Antiviral activity against Sindbis virus at 100 uM; type: functional, organism-based
HeLa = test: Cytostatic activity against human HeLa cells after 72 hrs by Coulter counter method; type: functional, cell-based
Human alphaherpesvirus 1 [6] = test: Antiviral activity against Aciclovir-resistant thymidine kinase-deficient HSV-1 KOS at 100 uM; type: functional, organism-based
Human betaherpesvirus 5 [7] = test: Antiviral activity against Human cytomegalovirus AD169 at 100 uM; type: functional, organism-based
Human betaherpesvirus 5 [8] = test: Antiviral activity against Human cytomegalovirus Davis at 100 uM; type: functional, organism-based
[9] = system: Vesicular stomatitis virus; test: Antiviral activity against VSV at 100 uM; type: functional, organism-based
Human alphaherpesvirus 1 [10] = test: Antiviral activity against HSV-1 KOS at 100 uM; type: functional, organism-based
Human alphaherpesvirus 2 [11] = test: Antiviral activity against HSV-2 lyons at 100 uM; type: functional, organism-based
Human alphaherpesvirus 2 [12] = test: Antiviral activity against HSV-2 G at 100 uM; type: functional, organism-based; conditions: strain G
Human adenovirus 2 = test: Antiviral activity against Adenovirus 2 at 100 uM; type: functional, organism-based
[13] = system: Respiratory syncytial virus; test: Antiviral activity against Respiratory syncytial virus long at 100 uM; type: functional, organism-based
Coxsackievirus B4 = test: Antiviral activity against Coxsackie B4 virus at 100 uM; type: functional, organism-based
Human respirovirus 3 = test: Antiviral activity against parainfluenza virus 3 at 100 uM; type: functional, organism-based
Influenza A virus [14] = test: Antiviral activity against Influenza virus A H1N1 at 100 uM; type: functional, organism-based
Vaccinia virus = test: Antiviral activity against Vaccinia virus Lederle; type: functional, organism-based; conditions: Orthopoxvirus vaccinia
[15] = molecular target: Adenosine receptor A3 (Homo sapiens) (UniProt P0DMS8); test: Agonist activity at adenosine A3 receptor (unknown origin) assessed as inhibition of forskolin-stimulated adenylyl cyclase activity at 10 uM; type: functional
Chain of Adenosine receptor A3 (Homo sapiens) (P0DMS8 whole entry): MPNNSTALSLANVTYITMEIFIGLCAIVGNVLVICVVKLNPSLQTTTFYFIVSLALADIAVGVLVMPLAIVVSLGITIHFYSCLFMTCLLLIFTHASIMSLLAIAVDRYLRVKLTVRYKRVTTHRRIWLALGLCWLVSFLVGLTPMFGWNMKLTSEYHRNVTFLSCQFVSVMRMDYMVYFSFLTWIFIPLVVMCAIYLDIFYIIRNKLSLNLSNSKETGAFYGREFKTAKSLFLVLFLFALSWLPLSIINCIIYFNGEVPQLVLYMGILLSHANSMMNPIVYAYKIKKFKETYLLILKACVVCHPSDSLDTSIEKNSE

Human alphaherpesvirus 3 [16] = test: Antiviral activity against VZV Oka; type: functional, organism-based; conditions: Human alphaherpesvirus 3, strain Oka vaccine
Human alphaherpesvirus 3 [17] = test: Antiviral activity against thymidine kinase deficient VZV 07-1; type: functional, organism-based; conditions: Human alphaherpesvirus 3, 07-1

SMILES | Activity (Influenza A virus [1]) | Activity (Influenza B virus) | Activity [2] | Activity (Punta Toro virus) | Activity [3] | Activity [4] | Activity [5] | IC50 (L1210) | IC50 (CCRF-CEM) | Activity (Sindbis virus) | IC50 (HeLa) | Activity (Human alphaherpesvirus 1 [6]) | Activity (Human betaherpesvirus 5 [7]) | Activity (Human betaherpesvirus 5 [8]) | Activity [9] | Activity (Human alphaherpesvirus 1 [10]) | Activity (Human alphaherpesvirus 2 [11]) | Activity (Human alphaherpesvirus 2 [12]) | Activity (Human adenovirus 2) | Activity [13] | further results
C#C[C@@]1(O)[C@@H](CO)O[C@@H](n2cnc3c(OC)nc(OC)nc32)[C@@H]1O | inactive | inactive | inactive | inactive | inactive | inactive | inactive | > 250 µM | > 250 µM | inactive | > 250 µM | inactive | inactive | inactive | inactive | inactive | inactive | inactive | inactive | inactive | Activity (Coxsackievirus B4): inactive; Activity (Human respirovirus 3): inactive; Activity (Influenza A virus [14]): inactive
C#C[C@@]1(O)[C@@H](CO)O[C@@H](n2cnc3c(OC)nc(Cl)nc32)[C@@H]1O | inactive | inactive | inactive | inactive | inactive | inactive | inactive | > 250 µM | 210 µM | inactive | 175 µM | inactive | inactive | inactive | inactive | inactive | inactive | inactive | inactive | inactive | Activity (Coxsackievirus B4): inactive; Activity (Human respirovirus 3): inactive; Activity (Influenza A virus [14]): inactive
C#C[C@@]1(O)[C@@H](CO)O[C@@H](n2cnc3c(Cl)nc(N)nc32)[C@@H]1O | inactive | inactive | inactive | inactive | inactive | inactive | inactive | > 250 µM | > 250 µM | inactive | > 250 µM | inactive | inactive | inactive | inactive | inactive | inactive | inactive | inactive | inactive | EC50 (Vaccinia virus): 51 µM; Activity (Coxsackievirus B4): inactive; Activity (Human respirovirus 3): inactive; Activity (Influenza A virus [14]): inactive
C#C[C@@]1(O)[C@@H](CO)O[C@@H](n2cnc3c(NC4CCCC4)nc(Cl)nc32)[C@@H]1O | inactive | inactive | inactive | inactive | inactive | inactive | inactive | 170 µM | 104 µM | inactive | 150 µM | inactive | inactive | inactive | inactive | inactive | inactive | inactive | inactive | inactive | inhibition [15]: 70%; Activity (Coxsackievirus B4): inactive; Activity (Human respirovirus 3): inactive; Activity (Influenza A virus [14]): inactive
C#C[C@@]1(O)[C@@H](CO)O[C@@H](n2cnc3c(N)nc(N)nc32)[C@@H]1O | inactive | inactive | inactive | inactive | inactive | inactive | inactive | 193 µM | ≥ 250 µM | inactive | 123 µM | inactive | inactive | inactive | inactive | inactive | inactive | inactive | inactive | inactive | Activity (Coxsackievirus B4): inactive; Activity (Human respirovirus 3): inactive; Activity (Influenza A virus [14]): inactive
C#C[C@@]1(O)[C@@H](CO)O[C@@H](n2cnc3c(N)ncnc32)[C@@H]1O | inactive | inactive | inactive | inactive | inactive | inactive | inactive | 0.73 µM | 0.61 µM | inactive | 0.29 µM | inactive | inactive | inactive | inactive | inactive | inactive | inactive | inactive | inactive | EC50 (Vaccinia virus): 0.35 µM; Activity (Coxsackievirus B4): inactive; Activity (Human respirovirus 3): inactive; Activity (Influenza A virus [14]): inactive
C#C[C@@]1(O)[C@@H](CO)O[C@@H](n2cnc3c(NCc4cccc(Cl)c4)nc(Cl)nc32)[C@@H]1O | inactive | inactive | inactive | inactive | inactive | inactive | inactive | 50 µM | 22 µM | inactive | 43 µM | inactive | inactive | inactive | inactive | inactive | inactive | inactive | inactive | inactive | inhibition [15]: 48%; EC50 (Human alphaherpesvirus 3 [16]): 4.68 µM; EC50 (Human alphaherpesvirus 3 [17]): 4.68 µM; Activity (Coxsackievirus B4): inactive; Activity (Human respirovirus 3): inactive; Activity (Influenza A virus [14]): inactive
C#C[C@@]1(O)[C@@H](CO)O[C@@H](n2cnc3c(N)nc(Cl)nc32)[C@@H]1O | inactive | inactive | inactive | inactive | inactive | inactive | inactive | 167 µM | > 250 µM | inactive | > 250 µM | inactive | inactive | inactive | inactive | inactive | inactive | inactive | inactive | inactive | Activity (Coxsackievirus B4): inactive; Activity (Human respirovirus 3): inactive; Activity (Influenza A virus [14]): inactive
C#C[C@@]1(O)[C@@H](CO)O[C@@H](n2cnc3c(OC)nc(N)nc32)[C@@H]1O | inactive | inactive | inactive | inactive | inactive | inactive | inactive | > 250 µM | > 250 µM | inactive | > 250 µM | inactive | inactive | inactive | inactive | inactive | inactive | inactive | inactive | inactive | Activity (Coxsackievirus B4): inactive; Activity (Human respirovirus 3): inactive; Activity (Influenza A virus [14]): inactive
